According to ChEMBL document CHEMBL1201862, “PubChem BioAssay data set” (2004):
Activity calls are given as the source filed them. For most assays here, no stated cut-off is given here; in the data, actives have a measured AC50 and inactives only a lower limit.

Assay: microbe, parasite or virus in culture
Type: functional
Details: Mycobacterium tuberculosis

Row | SMILES | CC50
1 | Cc1ccc(C(C(=O)NCC2CCCO2)N(Cc2ccccc2)C(=O)c2ccc(-c3ccccc3)[nH]2)o1 (stereo unspecified) | > 40 µM (active)
2 | Cc1cc(NC(=O)c2cc(-c3ccncc3)nc3c(C)cccc23)no1 | 9.08 µM (active)
3 | O=C(c1cccc(-c2ccco2)c1)N1CCCC(N2CCN(c3ccc(F)cc3)CC2)C1 (stereo unspecified) | > 40 µM (active)
4 | Cc1cc(C(=O)N/N=C\C(Br)=C\c2ccccc2)c(C)o1 | > 40 µM (active)
5 | C/C(CC(=O)Nc1ccc(Cl)cc1C(F)(F)F)=N\NC(N)=S | > 40 µM (active)
6 | CCCCCCCCCCC[C@@H](C[C@@H]1OC(=O)[C@H]1CCCCCC)OC(=O)[C@H](CC(C)C)NC=O [ORLISTAT] | 37.9 µM (active)

Assay: Shn3 3'UTR reporter inhibitors, dose response, cell-based, Clone20 osteoblasts, firefly luciferase, cherry-picked (AID 624132);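 further: firefly luciferase luminescence from reporter carrying the Shn3 3'UTR in osteoblasts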
Type: functional
Details: not given

Row | SMILES | AC50
7 | CNS(=O)(=O)c1cccc(C(=O)OCc2cc(C(C)=O)ccc2OC)c1 | 11.2 µM (active)

Assay: P. falciparum Dd2 growth inhibitors, dose response, SYBR Green, cherry-picked samples (AID 1159567)
Type: functional, cell-based
Details: not given

Row | SMILES | AC50
8 | COc1ccc2c3c([nH]c2c1)[C@H](CO)N(Cc1ccccc1Cl)CC31CN(C(=O)C2CC2)C1 | 5.65 µM (active)
9 | C/C=C/c1ccc([C@@H]2[C@@H](CO)N(CC3CCCC3)C23CN(S(=O)(=O)CC)C3)cc1 | 4.7 µM (active)
10 | C[C@H]1CN([C@@H](C)CO)C(=O)c2cc(NC(=O)Cc3cn(C)c4ccccc34)ccc2O[C@H]1CN(C)S(=O)(=O)c1cccs1 | 6.48 µM (active)
11 | COc1ccc2c3c([nH]c2c1)[C@@H](CO)N(Cc1ccccc1F)CC31CN(C(=O)C2CCC2)C1 | 7.2 µM (active)
12 | C[C@@H]1CN([C@@H](C)CO)C(=O)c2c(c3ccccc3n2C)-c2ccccc2CO[C@H]1CN(C)Cc1cccc(C(F)(F)F)c1 | 3.05 µM (active)
13 | CCCC(=O)N1CCC2(CC1)CN(Cc1cccnc1)[C@@H](CO)c1[nH]c3cc(OC)ccc3c12 | 5.19 µM (active)
14 | O=C(Cc1ccncc1)N1CC[C@@H]2[C@@H](CO)Nc3ccc(-c4cccc(F)c4)cc3[C@@H]21 | 3.43 µM (active)
15 | C[C@@H]1CN([C@@H](C)CO)C(=O)c2c(c3ccccc3n2C)-c2ccccc2CO[C@H]1CN(C)C(=O)Nc1ccc(-c2ccccc2)cc1 | 3.77 µM (active)
16 | COc1ccc(-c2ccc([C@@H]3[C@@H](CO)N4C(=O)CN(C(=O)C5CCCC5)C[C@@H]34)cc2)cc1 | 4.83 µM (active)
